{"source": "patent US11168081B2", "about": "“Alkaloid derivative having angiogenesis inhibitory effect, and pharmaceutical composition containing same” (SEOUL NATIONAL UNIVERSITY R&DB FOUNDATION, priority 2017, dated 2021)", "key": {"HUVECs [1]": {"test_system": "HUVECs", "assay": "In vitro tube formation assay", "assay_type": "cell-based, human", "procedure": "Matrigel (70 μl/well) was coated onto a 96-well plate and polymerized for 30 minutes at 37° C. under a 5% CO2 atmosphere. HUVECs (1.5×10^4 cells/well) and various concentrations of the compound were seeded onto each well of the Matrigel-coated 96-well plate. The cells were then incubated for 8 hours at 37° C. under a 5% CO2 atmosphere. The formation of endothelial cell tubular structures was visualized under an inverted microscope and photographed (Olympus Optical Co. Ltd., Tokyo, Japan). The inhibition rate of tube formation was determined using the following equation. tube formation inhibition rate (%)=[1−(average tube numbersample−average tube numberVEGF(−))/(average tube numberVEGF(+)−average tube numberVEGF(−))]×100 [Equation 1]\nThe IC50 value was calculated using nonlinear regression analysis using TableCurve 2D v5.01 software (Systat Software Inc., Richmond, Calif., USA).\n(§1) The same experiment was carried out for sunitinib as a positive control.\nThe endothelial cell tubular structure formation assay was performed in the same manner as in the Experimental Example 1."}, "HUVECs [2]": {"test_system": "HUVECs", "assay": "HUVEC cell growth assay (MTT)", "assay_type": "cell-based, human", "conditions": "Homo sapiens, HUVEC; MTT, 24 hours, in the presence of VEGF (50 ng/mL)", "procedure": "Human umbilical vascular endothelial cells (HUVECs) were obtained from the ATCC (Rockville, Md.) and cultured in EGM-2 (Lonza, Walkersville, Md.) supplemented with 10% FBS at 37° C. under a 5% CO2 atmosphere.\nCell growth was assessed by MTT assay. HUVECs (8×10^3 cells/well) were seeded onto a 96-well plate with EGM-2 medium supplemented with 10% FBS for 24 hours. The next day, the culture medium was removed, and the cells were then incubated with serum-free medium for 12 hours. Following serum starvation, the cells were cultured in fresh 2% FBS/EBM-2 medium containing various concentrations of the test compound for 24 hours in the presence of VEGF (50 ng/mL). After the incubation, an MTT solution was added, and the plate was incubated for additional 4 hours. The formazan product was dissolved in DMSO, and the absorbance was detected at 570 nm using a VersaMax ELISA microplate reader (Molecular Devices, Sunnyvale, Calif.).\nas §1"}, "HUVECs [3]": {"test_system": "HUVECs", "assay": "Scratch wound migration assay", "assay_type": "cell-based, human", "conditions": "24 hours, concentration-dependent, FIG. 1", "procedure": "The scratch wound migration assay was performed as follows.\nHUVECs were allowed to grow at 90% confluence in 12-well plates pre-coated with 0.2% gelatin and were then incubated for 24 hours. After the cells were attached, they were wounded by scratching with a 0.2 mL pipette tip. The plates were then washed with serum-free medium. Fresh medium was replaced with 2% FBS/EBM-2 medium containing various concentrations of the test compound. The cells were incubated for 24 hours, and images were recorded using an inverted phase-contrast light microscope (Olympus Optical Co. Ltd., Tokyo, Japan)."}, "[4]": {"test_system": "VEGFR2-mediated PI3K/AKT/eNOS and SRC/FAK signaling pathway", "assay": "Biomarker analysis (immunoblot) in VEGF-stimulated HUVECs", "assay_type": "cell-based, human", "conditions": "FIG. 2", "procedure": "The harvested cells were lysed by 2× sample loading buffer (250 mM Tris-HCl, pH 6.8; 4% SDS; 10% glycerol; 0.006% bromophenol blue; 2% β-mercaptoethanol; 50 mM sodium fluoride; and 5 mM sodium orthovanadate). The protein concentration was measured, and equal amounts of protein samples were subjected to 6-15% SDS-PAGE. The separated proteins were transferred to PVDF membranes (Millipore, Bedford, Mass.), which were then incubated with primary antibodies diluted in 2.5% BSA in TBST (1:500-1:1000) overnight at 4° C. The membranes were then washed three times with TBST and incubated with the corresponding secondary antibodies. Protein bands were detected with an enhanced chemiluminescence detection kit (Intron, Daejeon, Korea) and an LAS-4000 Imager (Fuji Film Corp., Tokyo, Japan).\nThe phosphorylation of VEGFR2 (Tyr1175) affects the activation of PI3K signaling, which leads to an increase in vascular permeability. In the VEGF signaling pathway, SRC kinases are downstream of VEGFR2 and regulate vascular permeability and angiogenesis. The activation of FAK is also an important contributor markedly involved in endothelial cell migration, proliferation and adherends junction integrity."}, "pKa": {"assay": "pKa", "assay_type": "physicochemical"}, "[5]": {"assay": "Aqueous solubility (pH-metric CheqSol)", "assay_type": "physicochemical", "conditions": "0.15 M KCl, 25° C.", "procedure": "The aqueous solubility was measured by the pH-metric CheqSol technique (Sirius Analytical Instruments Ltd.). Experiments was performed in 0.15 M KCl solution under a nitrogen atmosphere, at 25° C., using standardized 0.5 M HCl and 0.5 M KOH solutions."}, "MDCK permeability": {"assay": "MDCK permeability", "assay_type": "in vitro ADME, canine", "conditions": "dog, MDCK, pH 7.4; 10 μM, apical to basolateral", "procedure": "(§2) The permeability was examined using Madin-Darby canine kidney (MDCK) cell line. The MDCK cell line was acquired from the American Type Culture Collection (Manassas, Va.). The cells were seeded in 12 well plates and allowed to grow for 7 days at 37° C. under a 5% CO2 atmosphere. The MDCKI monolayers were equilibrated for 30 minutes in transport buffer (10 mM glucose, 4 mM sodium bicarbonate, HBSS with 1 mM HEPES, pH 7.4) at 37° C. under a 5% CO2 atmosphere prior to the experiment. The permeability of the test compound was examined at 10 μM (with a final DMSO percentage of 1%) in the apical to basolateral (A-to-B) direction. The concentration was analyzed by LC-MS/MS. The apparent permeability (Papp, A-B) was calculated using the following equation 2.\n(§3) wherein, dQ/dt is the rate of compound appearance in the receiver compartment (Q is the quantity of compound), C0 is the concentration in the donor compartment, and A is the surface area of the insert."}, "[6]": {"test_system": "Madin-Darby canine kidney (MDCK) cell line", "assay": "MDCK permeability", "assay_type": "in vitro ADME", "conditions": "in words", "procedure": "as §2, §3"}, "Plasma stability": {"assay": "Plasma stability", "assay_type": "in vitro ADME, human", "procedure": "For measuring plasma stability, the test compound (10 μM) was incubated with human plasma at 37° C. After 30 minutes, the reaction was quenched by adding acetonitrile (containing chlopropamide as internal standard). The samples were vortexed for 5 minutes and centrifuged at 14,000 rpm for 5 minutes at 4° C. Then, the supernatant was analyzed using a LC-MS/MS (Kinetex C18 column, Phenomenex, USA)."}, "Metabolic stability": {"assay": "Metabolic stability", "assay_type": "in vitro ADME, human", "procedure": "The test compound (1 μM) was incubated with human liver microsomes (HLM, 0.5 mg protein/ml) for 5 minutes at 37° C. in 100 mM potassium phosphate buffer (pH 7.4). The reaction was initiated by adding NADPH solution and incubated for 30 minutes. To terminate the reaction, acetonitrile (containing chlopropamide as internal standard) was added and centrifuged at 14,000 rpm for 5 minutes at 4° C. Then, the supernatant was analyzed using a LC-MS/MS (Kinetex C18 column, Phenomenex, USA)."}, "[7]": {"test_system": "Transgenic zebrafish (flk:EGFP) embryos", "assay": "Animal model angiogenesis inhibition assay (diabetic retinopathy)", "assay_type": "in vivo", "conditions": "zebrafish larvae", "procedure": "Transgenic zebrafish (flk:EGFP) embryos were provided by the Korea Zebrafish Oraganogenesis Muatant Bank (ZOMB, Daegu, Korea). The zebrafish embryos (3 dpf) were placed in a 12-well plate with 130 mM glucose embryonic H2O and various concentrations of the test compound. At 6 dpf, zebrafish larvae were fixed by 4% paraformaldehyde and stored overnight at 4° C. Next, the larvae were washed with distilled H2O, incubated with 10× trypsin (2.5%) for 90 minutes at 37° C. under a 5% CO2 atmosphere, and washed with distilled H2O. Then, the isolated lenses were isolated from the zebrafish larvae. Optic disc (OD) branches were visualized and photographed using a fluorescence microscope (Axiovert 200M, Carl Zeiss, Del.). The diameters of the larvae vessels were measured by ImageJ software."}}, "data": [{"smiles": "CCc1ccc2nc(C(c3ccc(OC)c(OC)c3)n3cc(CCN4CCCCC4)nn3)sc2c1", "note": "(stereo not drawn) [Compound I-7, 2-((3,4-dimethoxyphenyl)(4-(2-(piperidin-1-yl)ethyl)-1H-1,2,3-triazol-1-yl)methyl)-6-ethylbenzo[d]thiazole]", "values": [{"measurement": "enhancement of tube formation capacity by VEGF", "setting": "HUVECs [1]; HUVECs, concentration-dependent, FIG. 1", "result": "inhibited"}, {"measurement": "IC50", "setting": "HUVECs [1]; Homo sapiens, HUVEC, HUVECs on Matrigel, 8 hours, VEGF-induced tube formation", "result": 0.631, "unit": "µM"}, {"measurement": "Selectivity Index (SI)", "setting": "HUVECs [1]; ratio of the IC50 for HUVEC cell growth to the IC50 for tube formation", "result": 75.3}, {"measurement": "IC50", "setting": "HUVECs [2]", "result": 47.5, "unit": "µM"}, {"measurement": "enhancement of endothelial cell migration by VEGF", "setting": "HUVECs [3]", "result": "inhibited"}, {"measurement": "activation of SRC (p-SRC)/FAK (p-FAK)", "setting": "[4]; VEGF-stimulated HUVECs", "result": "inhibited"}, {"measurement": "levels of VEGFR2 (p-VEGFR2) activated by VEGF", "setting": "[4]; VEGF-stimulated HUVECs", "result": "suppressed"}, {"measurement": "activation of PI3K (p-PI3K), AKT (p-AKT) and eNOS (p-eNOS)", "setting": "[4]; pretreatment 30 minutes, VEGF (50 ng/mL) 20 minutes", "result": "significantly suppressed"}, {"measurement": "pKa", "setting": "pKa", "result": 9.24}, {"measurement": "Aqueous Solubility", "setting": "[5]", "result": 24, "unit": "µM"}, {"measurement": "Papp A→B at 10 μM", "setting": "MDCK permeability", "result": 11, "unit": "×10⁻⁶ cm/s"}, {"measurement": "MDCK cell permeability", "setting": "[6]", "result": "high"}, {"measurement": "plasma stability", "setting": "Plasma stability; 10 μM, human plasma, 37° C., remaining after 30 minutes", "result": 95, "unit": "%"}, {"measurement": "plasma stability", "setting": "Plasma stability; in words", "result": "high"}, {"measurement": "Metabolic Stability", "setting": "Metabolic stability; 1 μM, human liver microsomes 0.5 mg protein/ml, NADPH, 30 minutes", "result": 31, "unit": "%"}, {"measurement": "microsomal stability", "setting": "Metabolic stability; in words, human liver microsomes", "result": "good"}, {"measurement": "increase in hyaloid vessel diameters induced by HG", "setting": "[7]; 130 mM glucose, 3 to 6 dpf, concentration-dependent, FIG. 3", "result": "suppressed"}, {"measurement": "hyaloid vessel diameters in the optic disc area", "setting": "[7]; high glucose, 2.5 μM", "result": "markedly reduced"}]}]}
